# Assay results taken from patent US12011450B2, “Polyethylene glycol-conjugated glucocorticoid prodrugs and compositions and methods thereof” (Board of Regents of the University of Nebraska, priority 2015, dated 2024).
# Entries after “also recorded” stand apart in the source; their conditions may differ.
# What was measured:
# NZB/W F1 mice [1] = conditions: mouse, in vivo
# Excerpt: Therefore, at necropsy, we determined the mass of the adrenal glands in each mouse.
# NZB/W F1 mice [2] = conditions: mouse, in vivo; remark: listed apart in the source
# NZB/W F1 mice [3] = conditions: mouse, in vivo; remark: listed apart in the source
# Excerpt: Therefore, we monitored peripheral white blood cell (WBC) counts and during the experimental time course.
# NZB/W F1 mice kidneys = assay: Histological evaluation of PAS-stained kidney sections; format: in vivo; conditions: 2-month treatment end point
# Excerpt: The tissues were formalin-fixed, sectioned (3 μm) and periodic-acid schiff (PAS) stained for visual examination and 4 point grading by a pathologist, who is blind to the group design.
# The periodic-acid schiff (PAS) stained kidney sections were also graded by a histopathologic score system with a 4-point scale.
# MCP-1, IFN-β, IFN-γ = assay: Serum inflammatory cytokine/chemokine analysis; format: in vivo, mice; conditions: end of 2-month treatment
# Description: Their urine protein level was monitored weekly using Albustix Reagent Strips (Siemens Healthineers). Only mice with established nephritis, as evidenced by sustained albuminuria (≥100 mg/dL) over 2 weeks, were enrolled in the study. […] The Dex treatment (dexamethasone 21-phosphate disodium, 1.32 mg/kg, containing 1.00 mg/kg of dexamethasone, n=11) was given as daily i.v. injection. All treatments continued for 8 weeks. The body weight and proteinuria level of the animals was monitored on a weekly basis. Peripheral blood was collected from saphenous vein every 4 weeks for serum analyses. […] The surviving mice were monitored for an additional two weeks after the last treatment. The mice were then euthanized by CO2 asphyxiation, with all major tissues and organs isolated, weighted and processed at necropsy.
# For inflammatory cytokine/chemokine analysis, the data obtained were log 2 transformed to make them more normally distributed. The mixed effects model with AR(1) correlation among repeated measures over time of the same animal were used to fit the log transformed cytokine expression values for each cytokine separately. […]
# anti-dsDNA IgG = assay: Serum anti-dsDNA IgG level; format: in vivo, mice; conditions: 4 and 8 weeks post-treatment initiation
structure (smiles),measurement,setting,value
"C[C@@H]1C[C@H]2[C@@H]3CCC4=CC(=O)C=C[C@]4(C)[C@@]3(F)[C@@H](O)C[C@]2(C)[C@@]1(O)C(=O)COP(=O)([O-])[O-].[Na+].[Na+] [Dex, dexamethasone 21-phosphate disodium]",adrenal gland mass,NZB/W F1 mice [1],significantly lower than the PEG-DiDex group
same,total serum IgG level,NZB/W F1 mice [2],significant drop of serum IgG value
same,peripheral white blood cell (WBC) counts,NZB/W F1 mice [3],"lower than the saline group, even though there was no significant difference"
same,glomeruli with histological abnormities,NZB/W F1 mice kidneys,40%
same,mice graded as severe glomerulonephritis (scored 3 and 4 points),NZB/W F1 mice kidneys; 4-point scale,more than 40%
same,"change in serum MCP-1, IFN-β and IFN-γ values","MCP-1, IFN-β, IFN-γ",did not induce the improvement
same,serum anti-dsDNA IgG level,anti-dsDNA IgG,significantly reduce; also recorded: significantly reduced the antibody level
